One test concerns Vero. As to the kind of experiment: Cytotoxicity against african green monkey Vero cells. The note with it: Chlorocebus sabaeus. The test is classed as cell-based.
The test system of test [1] is Mycobacterium tuberculosis. As to the kind of experiment: Antitubercular activity against Mycobacterium tuberculosis H37Rv ATCC 27294. It counts as functional.

The results in this text go back to ChEMBL document CHEMBL1150928, “A new antitubercular mulinane diterpenoid from Azorella madreporica Clos” (J Nat Prod, 1998).

Values after ≈ are worked out from the molar mass of the structure shown.

Usually IC50 stands for the concentration that gives 50% inhibition. What is called MIC is the smallest concentration in the dilution series that meets the test's criterion for growth inhibition. Compound `CC(C)[C@H]1CC[C@@H]2[C@]1(C)CC[C@@]1(C)CC[C@@](C)(O)[C@@H]3C[C@@]231` yielded a half-maximal inhibitory concentration (IC50) with Vero of 184 µg/mL (≈ 633 µM). Also, the MIC in test [1] turned out to be 20 µg/mL (≈ 68.8 µM). For `CO[C@H]1/C=C/O[C@@]2(C)Oc3c(C)c(O)c4c(O)c(c(/C=N/N5CCN(C)CC5)c(O)c4c3C2=O)NC(=O)/C(C)=C\C=C\[C@H](C)[C@H](O)[C@@H](C)[C@@H](O)[C@@H](C)[C@H](OC(C)=O)[C@@H]1C` [RIFAMPIN], the IC50 in the test on Vero is > 158 µg/mL.
